Where “and” joins values, the source holds several entries; their conditions need not be identical. Equal entries are not always repeated.
How the values were obtained:
Type in all cases: biochemical
mTOR = mTOR (Homo sapiens, UniProt P42345); experiment: Target kinase 10-point inhibition assay, mTOR; details: replicates
Description: (§1) Quantitation of kinase inhibition was carried out by Life Technologies (Madison, WI) using the SelectScreen profiling platforms Z’-LYTE^TM and Adapta^TM. Single-point broad panel kinome screening was performed at 2.5 µM LP-182 against all kinases within the Z’-LYTE^TM and Adapta^TM assays (321 kinase isoforms, holoenzymes, or mutant variants). The average percent kinase inhibition from replicate data was ranked low to high, converted to a compatible identifier format, then input into Coral Human Kinome Visualization software for presentation analysis. […] Scaling of evolutionary distance for PI kinases is only relative and is based on literature analysis[62],[63]. Average percent kinome inhibition values from replicate data are supplied in Source Data file. […]. Corrected data was normalized to vehicle treated control values, and dose response percent kinase activity was analyzed by non-linear regression for determination of IC50 values.

PI3Kγ = PI3Kγ (Homo sapiens, UniProt P48736); experiment: Target kinase 10-point inhibition assay, PI3Kγ; details: PI3K gamma, replicates
Chain of PI3Kγ (P48736 whole entry): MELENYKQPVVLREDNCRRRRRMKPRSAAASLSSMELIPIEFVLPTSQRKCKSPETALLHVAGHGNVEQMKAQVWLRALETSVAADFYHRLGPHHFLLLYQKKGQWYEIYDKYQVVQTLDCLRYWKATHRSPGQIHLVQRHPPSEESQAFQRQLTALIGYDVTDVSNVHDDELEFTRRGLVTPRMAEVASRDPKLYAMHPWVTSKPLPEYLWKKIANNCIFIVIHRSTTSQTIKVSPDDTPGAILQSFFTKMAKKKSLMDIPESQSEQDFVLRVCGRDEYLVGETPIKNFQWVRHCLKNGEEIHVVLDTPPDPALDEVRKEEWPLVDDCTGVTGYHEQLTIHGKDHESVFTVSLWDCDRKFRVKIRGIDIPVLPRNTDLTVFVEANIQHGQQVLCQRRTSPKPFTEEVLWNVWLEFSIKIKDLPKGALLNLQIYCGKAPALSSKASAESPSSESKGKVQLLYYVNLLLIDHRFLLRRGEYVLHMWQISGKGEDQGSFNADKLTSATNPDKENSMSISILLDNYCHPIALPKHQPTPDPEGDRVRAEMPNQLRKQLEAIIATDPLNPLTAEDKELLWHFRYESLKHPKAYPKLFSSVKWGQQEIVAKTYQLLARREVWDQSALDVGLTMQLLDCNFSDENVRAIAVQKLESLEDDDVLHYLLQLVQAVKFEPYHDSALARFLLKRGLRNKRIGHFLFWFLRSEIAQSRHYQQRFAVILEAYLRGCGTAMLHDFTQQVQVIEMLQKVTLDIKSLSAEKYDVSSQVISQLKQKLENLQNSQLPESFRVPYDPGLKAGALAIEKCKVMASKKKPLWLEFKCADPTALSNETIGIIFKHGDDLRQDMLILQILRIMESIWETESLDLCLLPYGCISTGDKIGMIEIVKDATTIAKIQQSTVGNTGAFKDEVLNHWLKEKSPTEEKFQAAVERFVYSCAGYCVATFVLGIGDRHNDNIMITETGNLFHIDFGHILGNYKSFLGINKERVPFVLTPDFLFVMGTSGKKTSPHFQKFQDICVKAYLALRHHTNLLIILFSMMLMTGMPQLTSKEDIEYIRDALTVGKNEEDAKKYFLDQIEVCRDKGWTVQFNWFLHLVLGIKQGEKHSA
Description: as §1

[1] = target: Target kinase isoforms (PI3K, mTOR, RAF, MEK) (Homo sapiens, UniProt P48736); experiment: Target kinase isoforms 10-point IC50 determination (Supplementary Fig. 7); details: PI3K gamma
Chain of Target kinase isoforms (PI3K, mTOR, RAF, MEK) (Homo sapiens, UniProt P48736) (P48736 whole entry, canonical isoform): as the sequence (P48736 whole entry) above
Method in brief: (§2)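 Kinase activity across a 10-point dose series was corrected and normalized to vehicle-treated controls. IC50 values were derived by non-linear regression of percent activity. Kinome-wide percent inhibition was averaged over replicates.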

[2] = target: Target kinase isoforms (PI3K, mTOR, RAF, MEK) (Homo sapiens, UniProt P42336); experiment: as above; details: PI3K alpha
Chain of Target kinase isoforms (PI3K, mTOR, RAF, MEK) (Homo sapiens, UniProt P42336) (P42336 whole entry, canonical isoform): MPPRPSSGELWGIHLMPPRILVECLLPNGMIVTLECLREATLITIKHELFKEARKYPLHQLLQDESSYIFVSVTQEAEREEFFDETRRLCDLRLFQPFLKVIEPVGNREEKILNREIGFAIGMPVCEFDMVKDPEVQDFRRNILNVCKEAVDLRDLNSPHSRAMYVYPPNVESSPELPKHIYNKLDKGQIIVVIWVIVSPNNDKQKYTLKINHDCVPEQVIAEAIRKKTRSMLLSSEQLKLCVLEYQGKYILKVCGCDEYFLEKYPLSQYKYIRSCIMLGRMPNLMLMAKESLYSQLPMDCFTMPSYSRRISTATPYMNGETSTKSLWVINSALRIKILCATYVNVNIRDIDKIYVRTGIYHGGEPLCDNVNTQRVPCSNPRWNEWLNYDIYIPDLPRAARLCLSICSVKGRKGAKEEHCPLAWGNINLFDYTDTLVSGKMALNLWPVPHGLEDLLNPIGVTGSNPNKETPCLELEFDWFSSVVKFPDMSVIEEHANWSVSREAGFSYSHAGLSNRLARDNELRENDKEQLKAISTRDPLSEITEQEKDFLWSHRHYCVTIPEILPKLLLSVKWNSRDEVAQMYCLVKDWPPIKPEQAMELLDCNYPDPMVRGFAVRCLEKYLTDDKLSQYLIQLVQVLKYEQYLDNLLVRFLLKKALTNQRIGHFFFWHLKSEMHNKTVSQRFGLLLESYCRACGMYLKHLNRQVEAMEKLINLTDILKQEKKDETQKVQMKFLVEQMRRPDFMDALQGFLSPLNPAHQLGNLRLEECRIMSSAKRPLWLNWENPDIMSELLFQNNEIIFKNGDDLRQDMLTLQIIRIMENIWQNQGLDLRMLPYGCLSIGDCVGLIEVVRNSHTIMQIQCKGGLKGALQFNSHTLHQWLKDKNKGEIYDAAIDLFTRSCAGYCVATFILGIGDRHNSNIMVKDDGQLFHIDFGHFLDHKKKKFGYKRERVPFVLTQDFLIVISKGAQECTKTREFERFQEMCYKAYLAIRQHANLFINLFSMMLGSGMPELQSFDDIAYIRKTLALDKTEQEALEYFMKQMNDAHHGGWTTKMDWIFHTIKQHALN
Method in brief: as §2

[3] = target: Target kinase isoforms (PI3K, mTOR, RAF, MEK) (Homo sapiens, UniProt P42338); experiment: as above; details: PI3K beta
Chain of Target kinase isoforms (PI3K, mTOR, RAF, MEK) (Homo sapiens, UniProt P42338) (P42338 whole entry, canonical isoform): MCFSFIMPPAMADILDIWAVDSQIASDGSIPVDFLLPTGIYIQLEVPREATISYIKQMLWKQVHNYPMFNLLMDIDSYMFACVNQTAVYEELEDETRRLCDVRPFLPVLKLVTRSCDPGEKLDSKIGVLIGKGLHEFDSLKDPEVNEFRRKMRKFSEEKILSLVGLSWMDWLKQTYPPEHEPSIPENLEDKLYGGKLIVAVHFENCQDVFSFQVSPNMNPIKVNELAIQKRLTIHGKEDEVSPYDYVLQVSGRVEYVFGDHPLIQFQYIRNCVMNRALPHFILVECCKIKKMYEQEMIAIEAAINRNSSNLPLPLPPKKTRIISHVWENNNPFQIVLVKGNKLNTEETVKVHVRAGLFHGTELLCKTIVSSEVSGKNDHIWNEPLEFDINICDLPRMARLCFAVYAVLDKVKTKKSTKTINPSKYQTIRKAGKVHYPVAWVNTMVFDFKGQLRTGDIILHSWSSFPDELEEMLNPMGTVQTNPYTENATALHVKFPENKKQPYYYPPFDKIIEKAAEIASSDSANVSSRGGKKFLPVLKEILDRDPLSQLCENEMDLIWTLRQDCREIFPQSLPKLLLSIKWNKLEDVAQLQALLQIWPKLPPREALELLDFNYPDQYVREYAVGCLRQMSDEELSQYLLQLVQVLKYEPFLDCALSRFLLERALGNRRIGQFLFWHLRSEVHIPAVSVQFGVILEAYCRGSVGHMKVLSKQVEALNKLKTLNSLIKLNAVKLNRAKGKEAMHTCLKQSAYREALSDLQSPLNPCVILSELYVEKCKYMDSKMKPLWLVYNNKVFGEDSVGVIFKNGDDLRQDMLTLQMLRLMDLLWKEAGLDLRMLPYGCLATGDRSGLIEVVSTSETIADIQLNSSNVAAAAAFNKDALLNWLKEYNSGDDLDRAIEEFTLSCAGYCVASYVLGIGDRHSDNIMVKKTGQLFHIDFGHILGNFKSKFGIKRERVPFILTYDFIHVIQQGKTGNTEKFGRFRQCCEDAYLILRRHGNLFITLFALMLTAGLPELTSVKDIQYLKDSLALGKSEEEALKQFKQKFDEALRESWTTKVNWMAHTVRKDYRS
Method in brief: as §2

[4] = concentration 0.495 nM, 0.000495 µM

Chain of mTOR (P42345 1360-2549 limits assumed): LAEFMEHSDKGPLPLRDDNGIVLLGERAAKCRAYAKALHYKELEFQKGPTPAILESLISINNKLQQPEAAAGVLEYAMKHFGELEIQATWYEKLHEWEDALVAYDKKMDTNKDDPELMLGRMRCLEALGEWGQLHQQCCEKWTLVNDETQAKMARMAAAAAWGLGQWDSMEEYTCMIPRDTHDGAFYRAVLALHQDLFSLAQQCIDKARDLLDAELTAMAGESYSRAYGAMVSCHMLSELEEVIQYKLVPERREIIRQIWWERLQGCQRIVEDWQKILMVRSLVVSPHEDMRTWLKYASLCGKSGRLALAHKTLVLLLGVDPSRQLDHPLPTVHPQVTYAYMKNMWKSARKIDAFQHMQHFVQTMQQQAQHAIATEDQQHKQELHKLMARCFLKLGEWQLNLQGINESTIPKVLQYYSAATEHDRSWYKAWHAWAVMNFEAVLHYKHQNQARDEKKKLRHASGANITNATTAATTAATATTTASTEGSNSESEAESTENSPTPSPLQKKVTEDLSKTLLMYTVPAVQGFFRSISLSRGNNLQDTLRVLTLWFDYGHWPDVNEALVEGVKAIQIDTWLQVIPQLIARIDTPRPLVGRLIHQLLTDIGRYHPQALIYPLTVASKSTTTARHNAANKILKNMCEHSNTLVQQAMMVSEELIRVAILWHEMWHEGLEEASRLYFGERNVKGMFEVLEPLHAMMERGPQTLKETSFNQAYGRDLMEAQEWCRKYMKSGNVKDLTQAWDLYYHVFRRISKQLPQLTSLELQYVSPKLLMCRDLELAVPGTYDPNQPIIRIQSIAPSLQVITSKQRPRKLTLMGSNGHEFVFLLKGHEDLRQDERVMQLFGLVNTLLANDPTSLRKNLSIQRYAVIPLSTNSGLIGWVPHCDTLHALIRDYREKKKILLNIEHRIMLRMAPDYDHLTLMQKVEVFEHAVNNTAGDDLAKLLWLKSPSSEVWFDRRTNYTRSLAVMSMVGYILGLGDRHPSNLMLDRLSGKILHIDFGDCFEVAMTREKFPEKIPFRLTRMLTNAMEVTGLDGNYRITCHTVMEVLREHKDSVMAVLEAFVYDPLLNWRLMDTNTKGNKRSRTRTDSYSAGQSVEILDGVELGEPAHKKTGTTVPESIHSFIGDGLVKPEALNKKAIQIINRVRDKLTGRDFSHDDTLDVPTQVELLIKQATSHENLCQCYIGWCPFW

Structure (SMILES): O=S(=O)(Nc1cc(-c2ccc3ncc(N4CCNCC4)nc3c2)cnc1Cl)c1ccc(F)cc1 [LP-527, N-(2-chloro-5-(3-(piperazin-1-yl)quinoxalin-6-yl)pyridin-3-yl)-4-fluorobenzenesulfonamide]
- activity at 0.000495 µM (mTOR; 0.495 nM): 96%
- Kinase Activity (%) (mTOR; 0.495 nM, 0.000495 µM): 89% and 90% (2×) and 92%
- activity at 0.00152 µM (mTOR; 1.52 nM): 78%
- Kinase Activity (%) (mTOR; 1.52 nM, 0.00152 µM): 80% and 77% and 74% and 83% and 76%
- activity at 0.00457 µM (mTOR; 4.57 nM): 63%
- Kinase Activity (%) (mTOR; 4.57 nM, 0.00457 µM): 61% and 56% and 52% and 57% and 58%
- Kinase Activity (%) (mTOR; 41.2 nM, 0.0412 µM): 15% and 14% and 8% and 12% and 0% and 10%
- Kinase Activity (%) (mTOR; 123 nM, 0.123 µM): 7% (2×) and 3% and 2% and 5% and 0%
- Kinase Activity (%) (mTOR; 1110 nM, 1.11 µM): 5% and 3% and 2% and -4% and -2% and -1%
- Kinase Activity (%) (mTOR; 3330 nM, 3.33 µM): 3% and 2% and 1% and -3% and -2% and -4%
- Kinase Activity (%) (mTOR; 10000 nM, 10 µM): 6% and 3% and 0% and -1% and 1% and -2%
- activity at 18.7 pM (PI3Kγ; 0.0187 nM): 98%
- Kinase Activity (%) (PI3Kγ; 0.0187 nM, 18.7 pM): 118% and 115% and 109%
- Kinase Activity (%) (PI3Kγ; 0.0562 nM, 56.2 pM): 103% and 91% and 124%
- Kinase Activity (%) (PI3Kγ; 0.495 nM, 0.000495 µM): 94% (2×) and 75% and 83% and 72% and 100% and 97% and 99% and 96%
- Kinase Activity (%) (PI3Kγ; 1.52 nM, 0.00152 µM): 67% and 68% and 73% and 64% and 69% (2×) and 94% and 93% and 92% and 65%
- Kinase Activity (%) (PI3Kγ; 4.57 nM, 0.00457 µM): 52% and 53% and 49% and 45% and 47% and 76% and 79% and 62% and 70% and 55%
- Kinase Activity (%) (PI3Kγ; 41.2 nM, 0.0412 µM): 18% and 7% and 11% and 10% and 9% and 25% and 24% and 17% and 23% and 14%
- Kinase Activity (%) (PI3Kγ; 123 nM, 0.123 µM): 5% and 3% (2×) and 6% and 4% and 11% and 10% (2×) and 9% and 8%
- Kinase Activity (%) (PI3Kγ; 1110 nM, 1.11 µM): 0% (4×) and 8% and 1%
- Kinase Activity (%) (PI3Kγ; 3330 nM, 3.33 µM): 0% (5×) and 3%
- Kinase Activity (%) (PI3Kγ; 10000 nM, 10 µM): 3% and 0% (4×) and 8%
- activity at 6.09 pM (PI3Kγ; […]): 102%
- activity at 18.7 pM ([1]; concentration 0.0187 nM): 118%
- Kinase Activity (%) PI3K gamma ([1]; concentration 3330 nM, 3.33 µM): 0% and 3%
- Kinase Activity (%) PI3K gamma ([1]; concentration 10000 nM, 10 µM): 3% and 0% and 8%
- activity at 6.09 pM ([1]; concentration […]): 110%
- Kinase Activity (%) PI3K alpha ([2]; concentration 0.00626 nM, 6.26 pM): 96% and 108% and 85% and 101%
- activity at 18.8 pM ([2]; concentration 0.0188 nM): 97%
- Kinase Activity (%) PI3K alpha ([2]; concentration 0.0188 nM, 18.8 pM): 110% and 96% and 100%
- activity at 56.4 pM ([2]; concentration 0.0564 nM): 104%
- Kinase Activity (%) PI3K alpha ([2]; concentration 0.0564 nM, 56.4 pM): 103% and 96% and 99%
- activity at 0.000495 µM ([2]; concentration 0.495 nM): 47%
- Kinase Activity (%) PI3K alpha [2, 4]: 55% and 56% and 58%
- activity at 0.00152 µM ([2]; concentration 1.52 nM): 29%
- Kinase Activity (%) PI3K alpha ([2]; concentration 1.52 nM, 0.00152 µM): 28% and 30% and 31%
- activity at 0.00457 µM ([2]; concentration 4.57 nM): 15%
- Kinase Activity (%) PI3K alpha ([2]; concentration 4.57 nM, 0.00457 µM): 11% and 9%
- Kinase Activity (%) PI3K alpha ([2]; concentration 41.2 nM, 0.0412 µM): 3% and 2% and 0%
- Kinase Activity (%) PI3K beta ([3]; concentration 0.0187 nM, 18.7 pM): 86% and 99% and 98%
- Kinase Activity (%) PI3K beta ([3]; concentration 0.0562 nM, 56.2 pM): 94% and 122% and 99% and 98%
- Kinase Activity (%) PI3K beta [3, 4]: 87% and 91% and 92% and 97% and 104% and 103% and 82% and 98%
- Kinase Activity (%) PI3K beta ([3]; concentration 123 nM, 0.123 µM): 6% and 7% and 8% and 13%
- activity at […] ([3]; concentration 370 nM): 4%
- Kinase Activity (%) PI3K beta ([3]; concentration 370 nM, […]): 3%
- activity at 1.11 µM ([3]; concentration 1110 nM): 5%
- Kinase Activity (%) PI3K beta ([3]; concentration 1110 nM, 1.11 µM): 3%
- Kinase Activity (%) PI3K beta ([3]; concentration 3330 nM, 3.33 µM): 7% and 6% and 3%
- Kinase Activity (%) PI3K beta ([3]; concentration 10000 nM, 10 µM): 7% and 0% and 3%
- activity at 6.09 pM ([3]; concentration […]): 108%

From paper PMC9386018, “A lymphatic-absorbed multi-targeted kinase inhibitor for myelofibrosis therapy” (Nature Communications, 2022)
